According to article PMC7542596 (ACS Omega, 2020):

Legend:
[1] = system: Madin–Darby canine kidney (MDCK) cells; conditions: dog
[2] = system: H5N1 influenza virus strain A/Egypt/M7217B/2013; assay: microbe, parasite or virus in culture; type: cell-based, influenza A virus (subtype H5N1); conditions: for inhibition at 125 µM / inhibition at 250 µM: MDCK, read-out: inhibition % (plaque reduction assay)

| Structure (SMILES) | MTT assay LD50 [1] [µmol/mL] | viral count (plaque reduction assay) [2] | inhibition at 125 µM [2] [%] | inhibition at 250 µM [2] [%] | safety for healthy cells judged from LD50 values (NCI and GERAN protocol) [1] | therapeutic index (qualitative, plaque reduction assay) [2] |
| --- | --- | --- | --- | --- | --- | --- |
| CSC(NC(=O)c1ccccc1)=C(C#N)C#N [3a, N-(2,2-Dicyano-1-(methylthio)vinyl)benzamide] | 200 | 5.0 × 10^6 4.0 × 10^6 PFU/mL | 16.7 | 33.3 | – | – |
| CCSC(NC(=O)c1ccccc1)=C(C#N)C#N [3b, N-(2,2-Dicyano-1-(ethylthio)vinyl)benzamide] | 480 | 2.2 × 10^6 9.0 × 10^5 PFU/mL | 63.3 | 85 | safe for healthy cells | higher therapeutic indices |
| N#CC(C#N)=C(NC(=O)c1ccccc1)SCc1ccccc1 [3c, N-(1-(Benzylthio)-2,2-dicyanovinyl)benzamide] | 200 | 2.8 × 10^6 2.1 × 10^6 PFU/mL | 53.3 | 65 | – | – |
| N#Cc1nnc2c(C#N)c(NC(=O)c3ccccc3)nn2c1N [6a, N-(4-Amino-3,8-dicyanopyrazolo[5,1-c][1,2,4]triazin-7-yl)benzamide] | 200 | 4.0 × 10^6 3.0 × 10^6 PFU/mL | 33.3 | 50 | – | – |
| CCOc1c(C#N)nnc2c(C#N)c(NC(=O)c3ccccc3)nn12 [6b, N-(3,8-Dicyano-4-ethoxypyrazolo[5,1-c][1,2,4]triazin-7-yl)benzamide] | 100 | 3.0 × 10^6 3.2 × 10^6 PFU/mL | 50 | 46.7 | – | – |
| N#Cc1c(NC(=O)c2ccccc2)nn2c3c(cnc12)CCC3 [8a, N-(3-Cyano-7,8-dihydro-6H-cyclopenta[e]pyrazolo[1,5-a]pyrimidin-2-yl)benzamide] | 170 | 4.0 × 10^6 2.5 × 10^6 PFU/mL | 33.3 | 58.3 | – | – |
| N#Cc1c(NC(=O)c2ccccc2)nn2c3c(cnc12)CCCC3 [8b, N-(3-Cyano-6,7,8,9-tetrahydrocyclohexa[e]pyrazolo[1,5-a]pyrimidin-2-yl)benzamide] | 210 | – | – | – | – | – |
| COc1ccc(-c2c(C#N)c(N)nc3c(C#N)c(NC(=O)c4ccccc4)nn23)cc1 [10b, N-(5-Amino-3,6-dicyano-7-(4-methoxyphenyl)pyrazolo[1,5-a]pyrimidin-2-yl)benzamide] | 140 | 1.0 × 10^6 b PFU/mL | – | – | – | higher therapeutic indices |
| N#Cc1c(N)nc2c(C#N)c(NC(=O)c3ccccc3)nn2c1-c1ccc(Cl)cc1 [10c, N-(5-Amino-7-(4-chlorophenyl)-3,6-dicyanopyrazolo[1,5-a]pyrimidin-2-yl)benzamide] | 120 | 4.0 × 10^6 2.0 × 10^6 PFU/mL | 33.3 | 66.7 | – | – |
| Cc1cc(C)n2nc(NC(=O)c3ccccc3)c(C#N)c2n1 [12a, N-(3-Cyano-5,7-dimethylpyrazolo[1,5-a]pyrimidin-2-yl)benzamide] | 210 | 4.6 × 10^6 2.0 × 10^6 PFU/mL | 23.3 | 66.7 | – | – |
| Cc1cc(O)n2nc(NC(=O)c3ccccc3)c(C#N)c2n1 [12b, N-(3-Cyano-7-hydroxy-5-methylpyrazolo[1,5-a]pyrimidin-2-yl)benzamide] | 190 | 5.0 × 10^6 4.0 × 10^6 PFU/mL | 16.7 | 33.3 | – | – |
| CC(=O)OC[C@H]1O[C@@H](SC(NC(=O)c2ccccc2)=C(C#N)C#N)[C@H](OC(C)=O)[C@H](OC(C)=O)[C@H]1OC(C)=O [21a, (2R,3S,4R,5R,6S)-2-(Acetoxymethyl)-6-((1-benzamido-2,2-dicyanovinyl)thio)tetrahydro-2H-pyran-3,4,5-triyl triacetate] | 90 | 2.2 × 10^6 2.0 × 10^6 PFU/mL | 63.3 | 66.7 | – | – |
| CCOC(=O)/C(C#N)=C(\NC(=O)c1ccccc1)S[C@@H]1O[C@H](COC(C)=O)[C@H](OC(C)=O)[C@@H](OC(C)=O)[C@H]1OC(C)=O [21b, (2R,3S,4R,5R,6S)-2-(Acetoxymethyl)-6-(((E)-1-benzamido-2-cyano-3-ethoxy-3-oxoprop-1-en-1-yl)thio)tetrahydro-2H-pyran-3,4,5-triyl triacetate] | 210 | 3.5 × 10^6 2.0 × 10^6 PFU/mL | 41.7 | 66.7 | – | – |
| N#Cc1c(NC(=O)c2ccccc2)n[nH]c1N [compound 4, N-(5-Amino-4-cyano-1H-pyrazol-3-yl)benzamide] | 30 | 2.0 × 10^6 1.4 × 10^6 PFU/mL | 66.7 | 76.7 | – | higher therapeutic indices |
| CCOC(=O)/C(C#N)=C(\NC(=O)c1ccccc1)SC [compound 14, (E)-Ethyl 3-benzamido-2-cyano-3-(methylthio)acrylate] | 130 | 5.0 × 10^6 5.0 × 10^6 PFU/mL | 16.7 | 16.7 | – | – |
| CCOc1n[nH]c(-c2ccccc2)n1 [compound 19, 3-Ethoxy-5-phenyl-1H-1,2,4-triazole] | 230 | 2.2 × 10^6 2.0 × 10^6 PFU/mL | 63.3 | 66.7 | – | – |
| CC(=O)N[C@H]1[C@H]([C@H](O)[C@H](O)CO)OC(C(=O)O)=C[C@@H]1N=C(N)N [zanamivir, reference compound] | – | 5.0 × 10^4 1.1 × 10^4 PFU/mL | 99.2 | 99.8 | – | – |
